US8716285B2, “N-hydroxy-benzamids for the treatment of cancer” (Hoffmann-La Roche Inc., priority 2010, dated 2014)

Legend:
[1] = system: p21 promoter-luciferase construct; experiment: p21 reporter gene induction in HeLa cells transfected with p21 promoter-luciferase construct; assay type: cell-based; conditions: for p21 RP3: relative gene level of p21 induced compared to MS275 at 3 μM; for p21 RP10: relative level of p21 induced compared to MS275 at 10 μM; for p21 RP30: relative level of p21 induced compared to MS275 at 30 μM
Experimental: As a surrogate for in-cell HDAC1/2/3 inhibition, p21 induction was used as a counterscreen to evaluate the selectivity of the compounds in the present invention toward HDAC6 or HDAC8.
The novel compounds of the present invention were tested for their ability to induce p21 gene expression using a reporter gene assay involving HeLa cells transfected with a p21 promoter-luciferase construct. The p21 promoter contained the Sp1/Sp3 binding site for HDAC but not the upstream p53 binding site. Briefly, the day before transfection, HeLa cells were seeded at 11,000 cells/well in a 96-well culture plate and incubated at 37° C. in 5% CO2 overnight. A transfection media was prepared prior to transfection according to the following procedure: (1) 5 μl serum-free DMEM, 0.15 μl Fugene 6 reagent, 40 ng p21-luc, 10 ng GFP were mixed gently and incubated at rt for 30 minutes; (2), then 98 μl DMEM (with 10% FBS, 1% penicillin and streptomycin) was added to the DNA: Fugene 6 reagent complex and mixed gently. For transfection, the medium was removed and replaced with 100 μl/well transfection media which was prepared according to the procedure above. After incubating the cells for 24 hours at 37° C. in 5% CO2, fresh media and test compounds were added to the wells and the cells further incubated for 15 hours at 37° C. in 5% CO2. Cells were lysed by adding 80 μl/well of a cell culture lysis reagent (Promega). […] 100 μl luciferase assay reagent (Promega) was then added to every 20 μl cell lysate for luminometer detection. […] Induction activity for specific representative compounds can be found in Table 3.

recombinant human HDAC8 = recombinant human HDAC8 (Homo sapiens (Human), UniProt Q9BY41); experiment: HDAC8 inhibition: recombinant HDAC8 fluorometric assay; assay type: biochemical; conditions: recombinant human HDAC8, substrate Ac-Arg-His-Lys-Lys(ε-acetyl)-AMC
Chain of recombinant human HDAC8 (Q9BY41 whole entry): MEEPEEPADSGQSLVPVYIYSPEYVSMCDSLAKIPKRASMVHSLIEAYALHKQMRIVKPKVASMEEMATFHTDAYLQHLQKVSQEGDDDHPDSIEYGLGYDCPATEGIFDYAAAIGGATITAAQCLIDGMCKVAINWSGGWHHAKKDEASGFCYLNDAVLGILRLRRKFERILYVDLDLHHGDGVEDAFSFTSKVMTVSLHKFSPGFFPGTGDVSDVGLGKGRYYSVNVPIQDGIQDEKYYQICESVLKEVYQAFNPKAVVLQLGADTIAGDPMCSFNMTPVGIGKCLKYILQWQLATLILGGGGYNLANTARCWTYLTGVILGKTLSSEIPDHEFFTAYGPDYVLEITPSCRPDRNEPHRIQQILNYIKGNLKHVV
Experimental: A competitive inhibitory assay of HDAC8 was carried out by using recombinant HDAC8 and a commercial substrate Ac-Arg-His-Lys-Lys(ε-acetyl)-AMC.
Compounds were tested for their ability to inhibit histone deacetylase 8 using an in vitro deacetylation assay. The enzyme source for this assay was recombinant human HDAC8 protein expressed and purified from insect cells. […] The substrate consisted of a commercial product Ac-Arg-His-Lys-Lys(ε-acetyl)-AMC (substrate is available from Cayman Chemical). […] In a detailed procedure, 8 μl of HDAC8 enzyme solution (0.125 μg/μl) was transferred to assay plates (CORNING 3676). 1 μl of half-log diluted compounds were added into wells and incubated for 15 min at rt. After that, 8 μl of substrate solution was transferred to the wells and incubated for 30 min at rt. After deacetylation of the substrate by incubation with HDAC8 enzyme, subsequent exposure to a developing reagent produced a fluorophore that was directly proportional to the level of deacetylation. So 4 μl of developer regent (Cayman 10006394) was added into the wells in the assay plates and incubated for 15 min. The fluorescence signal was measured by a FlexStation3 plate reader (excitation wave length 340-360 nm; emission wave length 440-465 nm). The IC50 was calculated after normalization and curve fitting using XLfit4.0 software. Inhibition %=[Mean(top)−signal(sample)]*100/[Mean(top)−Mean(bottom)].

HDAC6 = HDAC6 (Homo sapiens (Human), UniProt Q9UBN7); experiment: Tubulin acetylation cytoblot assay (A549 cells); assay type: cell-based; conditions: 17-18 h, concentration for 50% induction of acetylated tubulin, read-out: Tub-ac EC50
Chain of HDAC6 (Q9UBN7 whole entry): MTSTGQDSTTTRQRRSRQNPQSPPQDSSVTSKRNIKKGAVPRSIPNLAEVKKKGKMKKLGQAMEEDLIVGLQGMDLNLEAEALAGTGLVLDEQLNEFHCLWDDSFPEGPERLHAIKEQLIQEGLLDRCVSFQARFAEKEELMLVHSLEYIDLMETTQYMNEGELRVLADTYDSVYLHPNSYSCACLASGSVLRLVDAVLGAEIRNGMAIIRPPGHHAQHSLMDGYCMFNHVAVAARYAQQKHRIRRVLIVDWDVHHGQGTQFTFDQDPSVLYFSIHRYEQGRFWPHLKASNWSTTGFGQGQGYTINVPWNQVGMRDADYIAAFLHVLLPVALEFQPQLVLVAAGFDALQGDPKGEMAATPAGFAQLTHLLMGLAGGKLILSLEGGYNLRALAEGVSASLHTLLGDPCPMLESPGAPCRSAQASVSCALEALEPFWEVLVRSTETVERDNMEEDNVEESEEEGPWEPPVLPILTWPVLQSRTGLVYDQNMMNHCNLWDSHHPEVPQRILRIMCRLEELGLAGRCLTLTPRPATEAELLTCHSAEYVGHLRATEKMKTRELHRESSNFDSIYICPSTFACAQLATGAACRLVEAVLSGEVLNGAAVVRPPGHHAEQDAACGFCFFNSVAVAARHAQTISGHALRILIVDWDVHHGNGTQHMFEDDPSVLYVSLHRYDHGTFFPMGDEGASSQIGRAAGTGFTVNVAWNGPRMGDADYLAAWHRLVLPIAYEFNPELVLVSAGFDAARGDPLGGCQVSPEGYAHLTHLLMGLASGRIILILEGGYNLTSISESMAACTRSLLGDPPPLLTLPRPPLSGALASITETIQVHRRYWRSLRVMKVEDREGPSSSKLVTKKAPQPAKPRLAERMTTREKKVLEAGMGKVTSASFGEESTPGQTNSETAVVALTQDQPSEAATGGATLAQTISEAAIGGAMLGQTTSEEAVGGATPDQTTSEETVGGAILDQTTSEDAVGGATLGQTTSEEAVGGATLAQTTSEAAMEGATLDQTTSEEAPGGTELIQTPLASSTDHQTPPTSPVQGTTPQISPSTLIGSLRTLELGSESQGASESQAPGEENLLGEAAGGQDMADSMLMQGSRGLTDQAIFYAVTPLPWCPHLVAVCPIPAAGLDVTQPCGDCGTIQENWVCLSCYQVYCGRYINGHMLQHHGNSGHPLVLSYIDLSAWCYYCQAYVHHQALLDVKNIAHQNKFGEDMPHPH
Experimental: Tubulin acetylation is a PD marker for HDAC6 inhibition. The extent of tubulin acetylation represents the inhibitory effect on HDAC6.
Novel compounds were tested for their ability to inhibit HDAC6 using a cell-based deacetylation assay. Tubulin acetylation was detected by the anti-acetylated tubulin antibody (Sigma) and horse radish peroxidase (HRP) conjugated secondary antibody (KangChen Bio. Tech.). […] 20 μl of diluted compound solution was transferred to the cell culture plate and incubated for 17-18 h. After medium removal and fixation by formaldehyde (3.7% paraformaldehyde in TBS), the cells in the plates were treated with 180 μl of −20° C. MeOH and incubated for 5 min at rt. The cell lysis was incubated with 75 μl of primary anti-acetylated tubulin antibody and secondary HRP conjugated antibody solution (1:750 anti-acetylated tubulin, 1:750 HRP conjugated anti-mouse IgG in antibody dilution buffer not containing sodium azide) for 4 h at 4° C. By adding the HRP substrate, enhanced chemiluminescence (ECL) reagent (GE Healthcare) generated luminescence corresponding to the level of tubulin acetylation. So that 75 μl of ECL was added into the wells and the luminescence from each well was immediately quantified by the plate reader. Based on the luminescence reading, the IC50s against HDAC6 of the tested compounds were calculated by plotting the curve with XLfit4.0 software. Inhibition %=[signal(sample)−Mean(bottom)]*100/[Mean(top)−Mean(bottom)]

Row | SMILES | p21 RP3 [1] | p21 RP10 [1] | p21 RP30 [1] | IC50 (recombinant human HDAC8) | EC50 (HDAC6)
1 | O=C(NO)c1ccc2c(c1)CC(Nc1nccc(-c3ccc(F)cc3)n1)CC2 (stereo not shown) [Example 12, 7-[4-(4-Fluoro-phenyl)-pyrimidin-2-ylamino]-5,6,7,8-tetrahydro-naphthalene-2-carboxylic acid hydroxyamide] | 0.10 | 0.00 | −0.10 | 260 nM | 970 nM
2 | CN(C)c1cccc(-c2ccnc(NC3CCc4ccc(C(=O)NO)cc4C3)n2)c1 (stereo not shown) [Example 16, 7-[4-(3-Dimethylamino-phenyl)-pyrimidin-2-ylamino]-5,6,7,8-tetrahydro-naphthalene-2-carboxylic acid hydroxyamid] | 1.50 | 0.40 | 0.30 | 800 nM | 3460 nM
3 | Cc1ccc(-c2ccnc(NC3CCc4ccc(C(=O)NO)cc4C3)n2)c(F)c1 (stereo not shown) [Example 17, 7-[4-(2-Fluoro-4-methyl-phenyl)-pyrimidin-2-ylamino]-5,6,7,8-tetrahydro-naphthalene-2-carboxylic acid hydroxyamide] | −0.56 | −0.47 | −0.45 | 1100 nM | 2300 nM
4 | COc1ccc(-c2ccnc(NC3CCc4ccc(C(=O)NO)cc4C3)n2)c(OC)c1 (stereo not shown) [Example 18, 7-[4-(2,4-Dimethoxy-phenyl)-pyrimidin-2-ylamino]-5,6,7,8-tetrahydro-naphthalene-2-carboxylic acid hydroxyamide] | 0.43 | 0.06 | −0.06 | 1230 nM | 1370 nM
5 | O=C(NO)c1ccc2c(c1)CC(Nc1nccc(-c3ccc(C(F)(F)F)cc3)n1)CC2 (stereo not shown) [Example 19, 7-[4-(4-Trifluoromethyl-phenyl)-pyrimidin-2-ylamino]-5,6,7,8-tetrahydro-naphthalene-2-carboxylic acid hydroxyamid] | −0.18 | −0.26 | −0.29 | 1690 nM | 5000 nM
6 | O=C(NO)c1ccc2c(c1)CC(Nc1nccc(-c3ccc(Cl)cc3Cl)n1)CC2 (stereo not shown) [Example 20, 7-[4-(2,4-Dichloro-phenyl)-pyrimidin-2-ylamino]-5,6,7,8-tetrahydro-naphthalene-2-carboxylic acid hydroxyamide] | −0.71 | −0.44 | −0.40 | 1520 nM | 6200 nM
7 | Cc1cc(Cl)ccc1-c1ccnc(NC2CCc3ccc(C(=O)NO)cc3C2)n1 (stereo not shown) [Example 21, 7-[4-(4-Chloro-2-methyl-phenyl)-pyrimidin-2-ylamino]-5,6,7,8-tetrahydro-naphthalene-2-carboxylic acid hydroxyamide] | −0.24 | −0.28 | −0.32 | 2150 nM | 9530 nM
8 | O=C(NO)c1ccc2c(c1)CC(Nc1nccc(-c3ccc(F)c(Cl)c3)n1)CC2 (stereo not shown) [Example 22, 7-[4-(3-Chloro-4-fluoro-phenyl)-pyrimidin-2-ylamino]-5,6,7,8-tetrahydro-naphthalene-2-carboxylic acid hydroxyamide] | −0.87 | −0.59 | −0.52 | 2240 nM | 6000 nM
9 | Cc1ccc(-c2ccnc(NC3CCc4ccc(C(=O)NO)cc4C3)n2)cn1 (stereo not shown) [Example 25, 7-[4-(6-Methyl-pyridin-3-yl)-pyrimidin-2-ylamino]-5,6,7,8-tetrahydro-naphthalene-2-carboxylic acid hydroxyamide] | 0.30 | 0.13 | 0.08 | 480 nM | 6200 nM
10 | Cc1cncc(-c2ccnc(NC3CCc4ccc(C(=O)NO)cc4C3)n2)c1 (stereo not shown) [Example 26, 7-[4-(5-Methyl-pyridin-3-yl)-pyrimidin-2-ylamino]-5,6,7,8-tetrahydro-naphthalene-2-carboxylic acid hydroxyamide] | 0.68 | 0.20 | −0.05 | 520 nM | 1520 nM
11 | COc1cncc(-c2ccnc(NC3CCc4ccc(C(=O)NO)cc4C3)n2)c1 (stereo not shown) [Example 27, 7-[4-(5-Methoxy-pyridin-3-yl)-pyrimidin-2-ylamino]-5,6,7,8-tetrahydro-naphthalene-2-carboxylic acid hydroxyamide] | 0.35 | 0.05 | −0.09 | 520 nM | 1900 nM
12 | COc1ccc(-c2ccnc(NC3CCc4ccc(C(=O)NO)cc4C3)n2)cn1 (stereo not shown) [Example 28, 7-[4-(6-Methoxy-pyridin-3-yl)-pyrimidin-2-ylamino]-5,6,7,8-tetrahydro-naphthalene-2-carboxylic acid hydroxyamide] | −0.20 | −0.19 | −0.24 | 1000 nM | 5470 nM
13 | O=C(NO)c1ccc2c(c1)CC(Nc1nccc(-c3ccc(Cl)nc3)n1)CC2 (stereo not shown) [Example 29, 7-[4-(6-Chloro-pyridin-3-yl)-pyrimidin-2-ylamino]-5,6,7,8-tetrahydro-naphthalene-2-carboxylic acid hydroxyamide] | 0.39 | 0.07 | −0.02 | 900 nM | 1430 nM
14 | O=C(NO)c1ccc2c(c1)CC(Nc1nccc(-c3cccnc3Cl)n1)CC2 (stereo not shown) [Example 30, 7-[4-(2-Chloro-pyridin-3-yl)-pyrimidin-2-ylamino]-5,6,7,8-tetrahydro-naphthalene-2-carboxylic acid hydroxyamide] | 0.40 | 0.10 | −0.03 | 510 nM | 600 nM
